Target: NAD(P)H dehydrogenase [quinone] 1 (Homo sapiens, UniProt P15559)
Test: Inhibition of NQO1 (With 2 uM BSA)
Details: pH 7.5
Procedure: On some occasions, potential inhibitors were dissolved in 0.13 M NaOH. Reactions were carried out at 25 deg C and cytochrome c reduction was monitored at 550nm in a BeckmanDU650 spectrophotometer.

NAD(P)H dehydrogenase [quinone] 1, sequence (P15559 whole entry): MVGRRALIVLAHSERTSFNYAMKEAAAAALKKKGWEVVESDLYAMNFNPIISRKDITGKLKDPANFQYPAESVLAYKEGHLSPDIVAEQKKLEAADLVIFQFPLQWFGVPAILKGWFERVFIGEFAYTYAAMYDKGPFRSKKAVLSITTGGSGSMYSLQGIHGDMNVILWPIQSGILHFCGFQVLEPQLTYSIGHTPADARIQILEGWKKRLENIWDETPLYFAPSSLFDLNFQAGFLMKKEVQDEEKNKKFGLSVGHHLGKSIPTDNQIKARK

IC50 | IC50 (25 °C) | Structure (SMILES)
6 nM | 2370 nM | O=c1oc2ccc3ccccc3c2c(O)c1Cc1ccc2ccccc2c1 [4-hydroxy-2H-chromen-2-one core, 23]
35 nM | 880 nM | O=c1oc2c(ccc3ccccc32)c(O)c1Cc1ccccc1 [4-hydroxy-2H-chromen-2-one core, 21]

— BindingDB's records for doi:10.1021/jm9011609 (University of Manchester, 2009)
